This note sets out measurements from US20010056184A1, “Pipecolinic acid derivatives, method of manufacturing the same and therapeutic agents containing these compounds” (priority 2000, published 2001).

Format in all cases: biochemical
For one assay, the target named is T1, MMP-9 (gelatinase B) (Homo sapiens, UniProt P14780).
T1 construct: MMP-9, derived human fibrosarcome (Yagai Co. Ltd.), were used as enzyme respectively; purchased Yagai Co. Ltd; host or cells: human fibrosarcoma
The experiment in a line: MMP-9 (gelatinase B) inhibitory activities, fluorogenic substrate enzyme assay. The note with it: 42° C., 3 h, substrate 10 μM. Here is the method:
(§1) Examination 2: MMP-2 (gelatinase A) and MMP-9 (gelatinase B) inhibitory activities.
(§2) Pro MMP-2 was obtained from culture medium separated from human pro-MMP-2 cDNA tranfected COS-1 cells. Pro MMP-2 activated by 1 mM (4-aminophenyl) mercury acetic acid and MMP-9, derived human fibrosarcome (Yagai Co. Ltd.), were used as enzyme respectively. Inhibition of both enzyme activities were estimated by enzyme assay using MOCAc-Pro-Leu-Gly-Leu-A2pr(Dnp)-Ala-Arg-NH2 (Peptide Research Center, 3163-v) as substrate. Thus, MMP-2 or MMP-9 (0.01 U/ml), test compound (several concentrations), and the substrate (10 μM) were incubated in 50 mM Tris - HCl buffer (pH 7.4) containing 0.2M NaCl, 10 mM CaCl2, 0.02% NaN3, and 0.05% Brij 35 at 42° C. for 2 h (MMP-2), 3 h (MMP-9) respectively. Inhibition of degradation of substrate in the presence of compound was determined by comparison with the degradation of substrate in the absence of compound, and concentration of 50% inhibition (IC50 value) was calculated.

Assay [1] deals with T2, human fibroblasts derived MMP-1 (type I collagenase) (Homo sapiens, UniProt P03956).
T2 construct: human fibroblasts derived MMP-1 (Yagai Co. Ltd.) as enzyme; purchased Yagai Co. Ltd; host or cells: human fibroblasts
T2 sequence (P03956 100-469): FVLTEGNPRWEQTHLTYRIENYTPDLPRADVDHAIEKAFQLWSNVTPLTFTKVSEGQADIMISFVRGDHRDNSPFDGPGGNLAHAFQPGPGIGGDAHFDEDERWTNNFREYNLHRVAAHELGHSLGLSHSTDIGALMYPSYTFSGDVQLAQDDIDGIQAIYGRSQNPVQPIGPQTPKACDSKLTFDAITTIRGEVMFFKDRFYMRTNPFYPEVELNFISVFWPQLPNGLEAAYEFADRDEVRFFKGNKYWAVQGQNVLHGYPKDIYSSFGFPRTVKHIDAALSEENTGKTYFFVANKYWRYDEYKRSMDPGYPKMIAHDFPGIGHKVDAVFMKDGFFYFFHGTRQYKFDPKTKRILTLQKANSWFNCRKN
Kind of assay: MMP-1 (type I collagenase) inhibitory activities, fluorogenic substrate enzyme assay. To be noted: for IC50: 37° C., 4 h, substrate 10 μM; for inhibition at 10 µM: at 10^−5M, NE means no effect, read-out: MMP-1 inhibition percent. Here is the method: Examination 1: MMP-1 (type I collagenase) inhibitory activities.
Inhibitory activities of MMP-1 (type I collagenase) activities were estimated by enzyme assay using human fibroblasts derived MMP-1 (Yagai Co. Ltd.) as enzyme, and MOCAc-Pro-Leu-Gly-Leu-A2pr(Dnp)-Ala-Arg-NH2 (Peptide Research Center, 3163-v) as substrate. Thus, MMP-1 (0.01 U/ml), test compound (10^−10˜10^−5 M), and the substrate (10 μM) were incubated in 50 mM Tris-HCl buffer (pH 7.4) containing 0.2M NaCl, 10 mM CaCl2, 0.02% NaN3, and 0.05% Brij 35 at 37° C. for 4 h. The reaction was stopped by adding of 4 volumes of sodium acetate buffer (pH 4.0), and the degradation of substrate was calculated by measurement with a fluorescence intensity (λ ex 328 nm, λ em 393 nm). Inhibition of degradation of substrate in the presence of compound was determined by comparison with the degradation percent of substrate in the absence of compound, and concentration of 50% inhibition (IC50 value) was calculated.

A further assay deals with T3, MMP-2 (gelatinase A) (Homo sapiens, UniProt P08253).
T3 construct: made in house; host or cells: COS-1 cells (secreted into culture medium)
T3 sequence (P08253 110-660): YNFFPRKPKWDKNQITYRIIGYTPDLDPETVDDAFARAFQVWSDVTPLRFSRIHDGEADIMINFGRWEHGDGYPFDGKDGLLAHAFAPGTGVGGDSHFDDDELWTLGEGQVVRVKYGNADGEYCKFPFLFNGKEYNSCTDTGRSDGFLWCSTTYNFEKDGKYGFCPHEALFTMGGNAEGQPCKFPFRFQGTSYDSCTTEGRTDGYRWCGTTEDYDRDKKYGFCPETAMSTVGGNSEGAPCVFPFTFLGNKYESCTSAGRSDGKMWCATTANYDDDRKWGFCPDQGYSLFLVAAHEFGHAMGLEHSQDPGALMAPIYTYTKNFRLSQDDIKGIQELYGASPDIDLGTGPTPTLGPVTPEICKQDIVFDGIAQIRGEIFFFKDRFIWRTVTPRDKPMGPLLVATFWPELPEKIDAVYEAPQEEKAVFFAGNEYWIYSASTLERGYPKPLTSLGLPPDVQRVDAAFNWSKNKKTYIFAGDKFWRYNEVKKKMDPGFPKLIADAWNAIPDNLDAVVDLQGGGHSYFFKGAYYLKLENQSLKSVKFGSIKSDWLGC
Kind of assay: MMP-2 (gelatinase A) inhibitory activities, fluorogenic substrate enzyme assay. To be noted: 42° C., 2 h, substrate 10 μM. As to the method: as §1, §2

The target in the next assay is T4, Δ MT1-MMP (Δ MMP-14) (Homo sapiens, UniProt P50281).
T4 construct: ProMT1-MMP cDNA encoded extracellular domain of pro Δ MT1-MMP was tranfected E. coli BL21DE3; made in house; host or cells: E. coli BL21DE3 (inclusion bodies, 8M urea, ion exchange)
The experiment in a line: Δ MT1-MMP (Δ MMP-14) inhibitory activities, fluorogenic substrate enzyme assay. The note with it: 37° C., 30 min, substrate 10 μM; read-out: ΔMMP-14 IC50. The text has this: Examination 3: Δ MT1-MMP (Δ MMP-14) inhibitory activities.
ProMT1-MMP cDNA encoded extracellular domain of pro Δ MT1-MMP was tranfected E. coli BL21DE3, pro Δ MT1-MMP collected as inclusion body was solved using 8M urea, and it was pulified by ion exchenge column chlomatography. Inhibition of enzyme activities were estimated by enzyme assay using activated Δ MT1-MMP, obtained from activation of pro Δ MT1-MMP by 10 μ/ml tripsine, and MOCAc-Pro-Leu-Gly-Leu-A2pr(Dnp)-Ala-Arg-NH2 (Peptide Research Center, 3163-v) as substrate. Thus, Δ MT1-MMP, test compound (several concentrations), and the substrate (10 μM) were incubated in 50 mM Tris - HCl buffer (pH 7.4) containing 0.2M NaCl, 10 mM CaCl2, 0.02% NaN3, 0.05% Brij 35, and 10 μM leuipeputine at 37° C. for 30 min. The reaction was stopped by adding of 4 volumes of sodium acetate buffer (pH 4.0), and the degradation of substrate was calculated by measurement with a fluorescence intensity (λ ex 328 nm, λ em 393 nm). Inhibition of degradation of substrate in the presence of compound was determined by comparison with the degradation of substrate in the absence of compound, and concentration of 50% inhibition (IC50 value) was calculated.

T1 sequence (P14780 94-707): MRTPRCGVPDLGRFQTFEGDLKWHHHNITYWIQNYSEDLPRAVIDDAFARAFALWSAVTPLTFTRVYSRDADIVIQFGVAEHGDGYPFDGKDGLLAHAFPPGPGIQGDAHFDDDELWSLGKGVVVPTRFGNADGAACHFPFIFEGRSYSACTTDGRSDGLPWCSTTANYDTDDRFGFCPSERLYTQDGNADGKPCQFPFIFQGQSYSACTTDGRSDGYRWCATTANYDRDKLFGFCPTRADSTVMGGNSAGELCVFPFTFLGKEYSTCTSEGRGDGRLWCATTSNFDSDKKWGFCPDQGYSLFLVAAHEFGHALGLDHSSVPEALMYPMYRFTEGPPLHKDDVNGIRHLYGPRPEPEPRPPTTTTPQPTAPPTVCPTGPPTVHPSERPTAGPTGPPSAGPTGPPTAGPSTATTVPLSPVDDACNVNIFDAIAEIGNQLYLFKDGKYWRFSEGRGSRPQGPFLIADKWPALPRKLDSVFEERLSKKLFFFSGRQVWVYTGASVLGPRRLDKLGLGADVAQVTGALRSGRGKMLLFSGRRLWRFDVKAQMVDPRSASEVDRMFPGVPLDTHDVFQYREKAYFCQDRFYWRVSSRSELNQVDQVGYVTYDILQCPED

As for `O=C(N[C@@H]1CCN(S(=O)(=O)c2ccc(-c3ccc(O)cc3)cc2)[C@@H](C(=O)NO)C1)c1ccccc1` [Compound 60, (2R, 4R)-4-Benzoylamino-2-hydroxyaminocarbonyl-1-[4-(4-hydroxyphenyl)benzenesulfonyl]-piperidine], the IC50 (usually the concentration that gives 50% inhibition) worked out at 890 nM against MMP-9 (gelatinase B), 4900 nM in assay [1], 2.9 nM at MMP-2 (gelatinase A) and 130 nM at Δ MT1-MMP (Δ MMP-14).
On to `CC(C)CCC(=O)N[C@@H]1CCN(S(=O)(=O)c2ccc([N+](=O)[O-])cc2)[C@@H](C(=O)NO)C1` [Compound 77, (2R, 4R)-2-Hydroxyaminocarbonyl-4-(4-methylpentanoylamino)-1-(4-nitrobenzenesulfonyl)-piperidine], for which the IC50 against MMP-9 (gelatinase B) came to 740 nM; against MMP-2 (gelatinase A) it was 480 nM; at Δ MT1-MMP (Δ MMP-14), 2300 nM. Besides, the inhibition (usually the drop in the measured response relative to a control, in per cent) at 10 µM in assay [1] stood at 32.2%.
In the case of `COc1ccc(S(=O)(=O)N2CC[C@H](NC(C)=O)C[C@H]2C(=O)NO)cc1` [Compound 81, (2S, 4S)-4-Acetylamino-2-hydroxyaminocarbonyl-1-(4-methoxybenzenesulfonyl)-piperidine], the IC50 is 390 nM against MMP-9 (gelatinase B), 220 nM at MMP-2 (gelatinase A) and 89 nM at Δ MT1-MMP (Δ MMP-14). For the same molecule, the inhibition at 10 µM in assay [1] was found to be 37.3%.
As for `COc1ccc(S(=O)(=O)N2CC[C@@H](NC(=O)CCC(C)C)C[C@@H]2C(=O)NO)cc1` [Compound 45, (2R, 4R)-2-Hydroxyaminocarbonyl-1-(4-methoxybenzenesulfonyl)-4-(4-methylpentanoylamino)-piperidine], the values for the IC50 at MMP-9 (gelatinase B), against MMP-2 (gelatinase A) and on Δ MT1-MMP (Δ MMP-14) were 1.4 nM, 1.7 nM and 16 nM, respectively. For the same molecule, the inhibition at 10 µM in assay [1] was 45.3%.
As for `COc1ccc(-c2ccc(S(=O)(=O)N3CC[C@@H](NCc4ccccc4)C[C@@H]3C(=O)NO)cc2)cc1` [Compound 56, (2R, 4R)-4-Benzylamino-2-hydroxyaminocarbonyl-1-[4-(4-methoxyphenyl)benzenesulfonyl]-piperidine], the IC50 is 0.36 nM at MMP-9 (gelatinase B), 1300 nM in assay [1], 0.49 nM at MMP-2 (gelatinase A) and 16 nM on Δ MT1-MMP (Δ MMP-14).
For the molecule `COc1ccc(-c2ccccc2S(=O)(=O)N2CC[C@@H](NC(=O)CCC(C)C)C[C@@H]2C(=O)NO)cc1` [Compound 54, (2R, 4R)-2-Hydroxyaminocarbonyl-1-[2-(4-methoxyphenyl)benzenesulfonyl]-4-(4-methylpentanoylamino)-piperidine], the figures for the 50% inhibitory concentration (IC50) against MMP-9 (gelatinase B), at MMP-2 (gelatinase A) and at Δ MT1-MMP (Δ MMP-14) were 1800 nM, 380 nM and 200 nM, respectively. Moreover, in assay [1], the inhibition at 10 µM is 45.8%.
In the case of `O=C(N[C@@H]1CCN(S(=O)(=O)c2ccc(-c3ccc(Cl)cc3)cc2)[C@@H](C(=O)O)C1)c1cccc[n+]1[O-]` [Compound 89, (2R, 4R)-2-Carboxy-1-[4-(4-chlorophenyl)benzenesulfonyl]-4-(pyridyl-N-oxide-2-yl) carbonylamino-piperidine], the IC50 on MMP-9 (gelatinase B) came to 200 nM; on MMP-2 (gelatinase A), 28 nM; at Δ MT1-MMP (Δ MMP-14), 7000 nM. In addition, the inhibition at 10 µM in assay [1] worked out at 14%.
With `COc1ccc(-c2ccc(S(=O)(=O)N3CC[C@@H](NC(=O)CCC(C)C)C[C@@H]3C(=O)NO)cc2)cc1` [Compound 49, (2R, 4R)-2-Hydroxyaminocarbonyl-1-[4-(4-methoxyphenyl)benzenesulfonyl]-4-(4-methylpentanoylamino)-piperidine], the IC50 amounted to 0.26 nM at MMP-9 (gelatinase B), 2600 nM in assay [1], 0.25 nM against MMP-2 (gelatinase A) and 130 nM at Δ MT1-MMP (Δ MMP-14).
The matching figures for `COc1ccc(C(=O)N[C@@H]2CCN(S(=O)(=O)c3ccc(OC)cc3)[C@@H](C(=O)NO)C2)cc1` [Compound 47, (2R, 4R)-2-Hydroxyaminocarbonyl-1-(4-methoxybenzenesulfonyl)-4-(4-methoxybenzoylamino)-piperidine]: 1.3 nM, 5500 nM, 1.7 nM and 3.2 nM.
Take `CC(C)CCCN[C@@H]1CCN(S(=O)(=O)c2cccs2)[C@@H](C(=O)NO)C1` [Compound 70, (2R, 4R)-2-Hydroxyaminocarbonyl-4-(4-methylpentylamino)-1-(2-thiophenesulfonyl)-piperidine]: the IC50 against MMP-9 (gelatinase B) came out at 83 nM; in assay [1], 5600 nM; at MMP-2 (gelatinase A), 740 nM; at Δ MT1-MMP (Δ MMP-14), 380 nM.
On to `COc1ccc(S(=O)(=O)N2CC[C@@H](NC(C)=O)C[C@@H]2C(=O)NO)cc1` [Compound 66, (2R, 4R)-4-Acetylamino-2-hydroxyaminocarbonyl-1-(4-methoxybenzenesulfonyl)-piperidine], for which the IC50 against MMP-9 (gelatinase B) turned out to be 8.6 nM; in assay [1], 530 nM; at MMP-2 (gelatinase A) it was 4.2 nM; on Δ MT1-MMP (Δ MMP-14), 2.1 nM.
On to `CC(=O)N[C@@H]1CCN(S(=O)(=O)c2ccc(-c3ccc(O)cc3)cc2)[C@@H](C(=O)NO)C1` [Compound 65, (2R, 4R)-4-Acetylamino-2-hydroxyaminocarbonyl-1-[4-(4-hydroxyphenyl)benzenesulfonyl]-piperidine], for which the IC50 against MMP-9 (gelatinase B) turned out to be 51 nM; in assay [1] it was 870 nM; at MMP-2 (gelatinase A), 4.8 nM; at Δ MT1-MMP (Δ MMP-14) it was 23 nM.
Turning to `COc1ccc(OCCCCC(=O)N[C@H]2CCN(S(=O)(=O)c3ccc(OC)cc3)[C@H](C(=O)NO)C2)cc1` [Compound 78, (2S, 4S)-2-Hydroxyaminocarbonyl-1-(4-methoxybenzenesulfonyl)-4-[5-(4-methoxyphenoxy)pentanoylamino]-piperidine], the IC50 came out at 450 nM against MMP-9 (gelatinase B), 500 nM against MMP-2 (gelatinase A) and 300 nM on Δ MT1-MMP (Δ MMP-14). The inhibition at 10 µM in assay [1] is 31.1%.
